Where two headings read alike, the source gives them in different places.
Tests used:
[1] = Plasma pharmacokinetics in mice (another study, Table 2); format: in vivo; settings: mouse
Procedure: In another study, liposome-entrapped bortezomib was administered to mice and the pharmacokinetic parameters were determined. The liposomes were composed of 22:0PC/mPEG-DSPE and were prepared as described in Example 7.

[2] = cited from earlier work
[3] = Pharmacokinetics in plasma, blood and tumor of SCID mice bearing CWR22 tumors (Example 7); format: in vivo; settings: for AUC(0-t): read-out: AUC(0-24 h)
Procedure: Liposome formulations prepared as described herein were administered in vivo to mice. As described in Example 7, liposomes comprised of 22:0PC/mPEG-DSPE (95/5) and containing entrapped bortezomib were prepared and administered intravenously to tumor-bearing mice. A control group of mice was treated with bortezomib sold under the trade name VELCADE®, which is a mixture of bortezomib in mannitol. FIGS. 11A-11C show the concentration, in ng/mL, of bortezomib in plasma (FIG. 11A), blood (FIG. 11B) and tumor (FIG. 11C) for the drug in free form (diamonds) or entrapped in liposomes (squares).
Blood and tumor samples were taken at various time points. The bortezomib concentrations in blood, plasma and tumor tissues were determined by LC-MS.

[4] = male, SCID, mouse, iv, Plasma, mice, i.v. 0.8 mg/kg
[5] = male, SCID, mouse, iv, Tumor, mice, i.v. 0.8 mg/kg
[6] = male, SCID, mouse, iv, Whole Blood, mice, i.v. 0.8 mg/kg

In the case of `CC(C)C[C@H](NC(=O)[C@H](Cc1ccccc1)NC(=O)c1cnccn1)B(O)O` [bortezomib], the concentration at 5 min ([1]; intravenous, read-out: Conc. At 5 min.) is reported as 423 ± 33.6 ng/mL, the AUC(0-t) ([1]; iv, read-out: AUC(0-24 h)) is reported as 271 ng·h/mL and the clearance ([1]; iv, read-out: CL-obs (converted)) is reported as 0.897 mL/min. The Vd ([1]; iv, read-out: Vss) was 0.37 L, the maximum tolerated dose ([2]; intravenous bolus on days 1, 4, 8, and 11 of a 3-week cycle) was 1.56 mg/m^2 and the maximum tolerated dose ([2]; patients with solid tumors, intravenously once or twice weekly) was 1.3 mg/m^2. For the same compound, the “CL(app) = dose/AUC24 h” value ([3]; Whole Blood) was 0.358 mL/min/kg, the clearance ([3]; male, SCID, mouse, intravenous, 0.8 mg/kg, Plasma, estimated using T½α phase, read-out: CL-obs (converted)) was 0.222 mL/min/kg and the Vd ([3]; male, SCID, mouse, intravenous, 0.8 mg/kg, Plasma, estimated using T½α phase, read-out: Vss-obs) was 0.0427 L/kg. For the same compound, the Cmax [3, 4] was 23500 ng/mL, the AUC(0-t) [3, 4] was 59800 ng·h/mL and the half-life ([3]; male, SCID, mouse, iv, Plasma, mice, i.v. 0.8 mg/kg, read-out: T1/2(α) (converted)) was 2.7 h. The Cmax [3, 5] was 674 ng/mL, the AUC(0-t) [3, 5] was 12800 ng·h/mL and the Cmax [3, 6] was 10300 ng/mL. For the same compound, the AUC(0-t) [3, 6] was 37200 ng·h/mL.

— patent US20090092661A1, “LIPOSOME COMPOSITIONS FOR IN VIVO ADMINISTRATION OF BORONIC ACID COMPOUNDS” (priority 2007, published 2009)
